Assay results published in ChEMBL document CHEMBL1201862, “PubChem BioAssay data set” (2004).
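Growth conditions: 96-well plates. Treatment: test compound, 48 hours, 5 concentrations. Analysis: linear interpolation between bracketing concentrations; unreached endpoints set to highest concentration. GI50: concentration for 50% inhibition of growth.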 Active and inactive are the calls of the source. Rule as the data show it: active = GI50 up to about 1.1 µM and inactive = higher.

Key:
Test in all cases: DTP human tumour cell line panel, 48 h
A498 = test system: A498
HT-29 = test system: HT-29
KM12 = test system: KM12
LOX IMVI = test system: LOX IMVI
NCI-H23 = test system: NCI-H23
SF-268 = test system: SF-268
SK-MEL-28 = test system: SK-MEL-28
SK-MEL-5 = test system: SK-MEL-5
SK-OV-3 = test system: SK-OV-3
SN12C = test system: SN12C
U-251 = test system: U-251
UACC-257 = test system: UACC-257
EKVX = test system: EKVX
SR = test system: SR
SW-620 = test system: SW-620

Measured: GI50

O=C(NN1C(=O)C(Cl)C1c1cccc(O)c1)c1ccccc1O (centres undefined)
inactive: A498 > 100 µM | HT-29 > 100 µM | KM12 > 100 µM | LOX IMVI > 100 µM | NCI-H23 > 100 µM | SF-268 > 100 µM | SK-MEL-28 > 100 µM | SK-MEL-5 > 100 µM | SK-OV-3 > 100 µM | SN12C > 100 µM | U-251 > 100 µM | UACC-257 > 100 µM

CC1=C(O)C(=O)C2C(=O)C1C(C)C2c1ccc(C)cc1 (centres undefined)
inactive: A498 > 100 µM | EKVX > 100 µM | HT-29 > 100 µM | KM12 > 100 µM | LOX IMVI > 100 µM | NCI-H23 > 100 µM | SF-268 > 100 µM | SK-MEL-28 > 100 µM | SK-MEL-5 > 100 µM | SK-OV-3 > 100 µM | SR > 100 µM | SW-620 > 100 µM | U-251 > 100 µM | UACC-257 > 100 µM

C[C@]12CC[C@H](OC(=O)Nc3ccccc3)CC1=CC[C@@H]1C2CC[C@]2(C)/C(=N/OC(=O)Nc3ccccc3)CCC12 (some centres undefined)
inactive: A498 > 100 µM | EKVX 30.1 µM | HT-29 2.88 µM | KM12 8.15 µM | LOX IMVI 5.32 µM | NCI-H23 > 100 µM | SF-268 7.94 µM | SK-MEL-5 5.35 µM | SK-OV-3 > 100 µM | SN12C 1.79 µM | SW-620 > 100 µM | U-251 43.7 µM

C=C=C(C(=O)OC)[S+]([O-])c1ccccc1[N+](=O)[O-] (centres undefined)
inactive: A498 > 100 µM | EKVX > 100 µM | HT-29 > 100 µM | KM12 > 100 µM | NCI-H23 > 100 µM | SF-268 > 100 µM | SK-MEL-5 > 100 µM | SK-OV-3 > 100 µM | SN12C > 100 µM | SW-620 99.5 µM | U-251 > 100 µM | UACC-257 > 100 µM

C=CCNC(=O)N(CCCC(NC(C)=O)C(=O)NCc1ccccc1)Cc1ccccc1 (centres undefined)
inactive: A498 > 100 µM | EKVX > 100 µM | HT-29 > 100 µM | KM12 > 100 µM | LOX IMVI > 100 µM | NCI-H23 > 100 µM | SF-268 > 100 µM | SK-MEL-28 > 100 µM | SK-MEL-5 > 100 µM | SK-OV-3 > 100 µM | SN12C > 100 µM | SW-620 > 100 µM | U-251 > 100 µM | UACC-257 > 100 µM

CC(C)C1N2CCCCC2[C@@H]2c3[nH]c4ccccc4c3CCN12 (some centres undefined)
inactive: A498 > 100 µM | EKVX > 100 µM | HT-29 > 100 µM | NCI-H23 > 100 µM | SF-268 > 100 µM | SK-MEL-28 > 100 µM | SK-MEL-5 > 100 µM | SK-OV-3 > 100 µM | SN12C > 100 µM | SW-620 > 100 µM | U-251 > 100 µM | UACC-257 > 100 µM

COc1cc2c(cc1OC)C(Cl)C(c1ccc(Cl)c(Cl)c1)=C2Cl (centres undefined)
inactive: A498 16.9 µM | EKVX 18 µM | HT-29 4.38 µM | LOX IMVI 2.24 µM | NCI-H23 44.6 µM | SF-268 6.21 µM | SK-MEL-28 12 µM | SK-MEL-5 5.94 µM | SK-OV-3 15.5 µM | SN12C 9.27 µM | SW-620 6.18 µM | U-251 4.71 µM

CC(=O)NC(CCCCN(Cc1ccccc1)C(=O)N(C)N=O)C(=O)NCc1ccccc1 (centres undefined)
inactive: A498 > 100 µM | EKVX 90.4 µM | HT-29 83.9 µM | KM12 > 100 µM | LOX IMVI > 100 µM | NCI-H23 > 100 µM | SF-268 38.9 µM | SK-MEL-28 > 100 µM | SK-MEL-5 47.1 µM | SK-OV-3 > 100 µM | SN12C > 100 µM | SW-620 > 100 µM | U-251 > 100 µM | UACC-257 > 100 µM

NC(=O)N/C=C1\C(=O)Oc2ccccc2C1=O
inactive: EKVX > 100 µM | HT-29 > 100 µM | KM12 > 100 µM | LOX IMVI > 100 µM | NCI-H23 > 100 µM | SF-268 95.7 µM | SK-MEL-28 73.5 µM | SK-MEL-5 > 100 µM | SN12C 64.4 µM | SW-620 > 100 µM | UACC-257 89.9 µM

Cc1ccc([Se][Se]c2ccc(C)cc2)cc1
inactive: A498 > 100 µM | HT-29 20.5 µM | KM12 50.2 µM | LOX IMVI 5.42 µM | NCI-H23 23.8 µM | SF-268 6.84 µM | SK-MEL-28 19.1 µM | SK-MEL-5 16 µM | SK-OV-3 > 100 µM | SN12C 26.7 µM | SW-620 7.62 µM | U-251 3.18 µM | UACC-257 17 µM

CCOc1ccccc1NC(=O)/C=C1\NC(=O)CS1
inactive: A498 > 100 µM | EKVX > 100 µM | HT-29 > 100 µM | KM12 > 100 µM | LOX IMVI > 100 µM | NCI-H23 > 100 µM | SF-268 > 100 µM | SK-MEL-28 > 100 µM | SK-MEL-5 > 100 µM | SK-OV-3 > 100 µM | SN12C > 100 µM | SW-620 > 100 µM | U-251 > 100 µM

C[C@]12Cc3cn[nH]c3C(=O)C1CC[C@@H]1C2CC[C@@]2(C)C1CC[C@]2(C)O (some centres undefined)
inactive: A498 > 100 µM | EKVX > 100 µM | HT-29 > 100 µM | KM12 > 100 µM | LOX IMVI > 100 µM | NCI-H23 > 100 µM | SF-268 > 100 µM | SK-MEL-28 > 100 µM | SK-MEL-5 > 100 µM | SK-OV-3 > 100 µM | SN12C > 100 µM | SW-620 > 100 µM | U-251 > 100 µM | UACC-257 > 100 µM

O=C(CSc1nc(=O)c(-c2ccccc2NC(=O)C(F)(F)F)n[nH]1)NC(=O)Nc1ccccc1
inactive: EKVX 55.5 µM | HT-29 > 100 µM | KM12 > 100 µM | LOX IMVI > 100 µM | NCI-H23 > 100 µM | SF-268 56.6 µM | SK-MEL-28 > 100 µM | SK-MEL-5 > 10 µM | SK-OV-3 39 µM | SN12C > 100 µM | SR > 100 µM | SW-620 > 100 µM | U-251 > 100 µM

O=c1[nH]c(Br)nc2c(N3CCCCC3)c[nH]c12
inactive: A498 > 100 µM | EKVX > 100 µM | HT-29 > 100 µM | KM12 > 100 µM | LOX IMVI > 100 µM | NCI-H23 > 100 µM | SF-268 > 100 µM | SK-MEL-28 > 100 µM | SK-MEL-5 > 100 µM | SK-OV-3 > 100 µM | SN12C > 100 µM | SW-620 > 100 µM | U-251 > 100 µM | UACC-257 > 100 µM

O=C(Cc1nc2ccccc2o1)C(=O)Nc1cccc(C(F)(F)F)c1
inactive: A498 > 100 µM | EKVX > 100 µM | HT-29 > 100 µM | KM12 > 100 µM | LOX IMVI > 100 µM | NCI-H23 > 100 µM | SF-268 > 100 µM | SK-MEL-28 > 100 µM | SK-MEL-5 > 100 µM | SK-OV-3 > 100 µM | SN12C > 100 µM | SW-620 > 100 µM | U-251 > 100 µM | UACC-257 > 100 µM
